According to PMC8173716 (Nature nanotechnology, 2020):

Experiments:
mouse NE = experiment: Inhibition of mouse NE cleavage of vABNs by sivelestat, in vitro; assay type: biochemical
NE [1] = experiment: vABN breath test in PA01-inoculated mice treated with sivelestat; assay type: in vivo, mouse; settings: sivelestat before vABN delivery
NE [2] = settings: cited from earlier work
human NE = settings: cited from earlier work
NE in mouse lung lysates = settings: cited from earlier work
NE [3] = experiment: vABN breath test in WT and SERPINA1a-e knockout mice; assay type: in vivo, mouse (male C57BL/6 WT and Serpina1a-e knockout); settings: 1 mg prophylactic A1AT, LPS
NE [4] = experiment: vABN breath test in LPS-challenged mice given prophylactic A1AT; assay type: in vivo, mouse (female C57BL/6N)

In the case of CC(C)(C)C(=O)Oc1ccc(S(=O)(=O)Nc2ccccc2C(=O)NCC(=O)O)cc1 [sivelestat], the “inhibition of mouse NE cleavage of vABNs” value (mouse NE) is listed as “mouse NE can be inhibited using sivelestat to prevent cleavage of vABNs”, the “attenuation of breath signal in infected mice” value (NE [1]) is listed as ~ 75% and the “specific inhibition of NE” value (NE [2]) is listed as “specifically inhibits NE”.

For Ac-Nle(O-Bzl)-Met(O)2-Oic-Abu-ACC, the “selectivity for human NE” value (human NE) is listed as “selectivity for human NE”, the “catalytic efficiency (kcat/Km)” value (human NE; fluorogenic ACC substrate) is listed as 4.79e+07 M⁻¹ s⁻¹ and the “binding in mouse lung lysates” value (NE in mouse lung lysates) is listed as “bind specifically to NE in mouse lung lysates”.

In the case of “A1AT: Alpha-1 antitrypsin, a protein inhibitor of NE”, the “breath signal in A1AT-treated knockout mice vs untreated knockout mice” value (NE [3]; p < 0.05, n = 7–8) is given as “significantly lower than that in untreated knockout mice”, the “AUROC, A1AT-treated knockout vs WT with acute inflammation” value (NE [3]; p = 0.568) is given as 0.60 and the “neutrophil recruitment / anti-inflammatory effect” value (NE [2]) is given as “suppressed neutrophil recruitment, a well-documented anti-inflammatory effect of A1AT”. For the same molecule, the “breath signal after LPS challenge” value (NE [4]; 1-mg A1AT 1–2 days before LPS challenge, vs untreated LPS-challenged controls) was “significantly reduce breath signal”, the “breath signal after LPS challenge” value (NE [4]; 1-mg A1AT 3 days before LPS challenge (D-3), vs untreated controls) was “absence of significant difference” and the “AUROC, untreated vs A1AT-treated” value (NE [4]; A1AT 1 day before LPS challenge (D-1)) was 0.97. The “AUROC, untreated vs A1AT-treated” value (NE [4]; A1AT 2 days before LPS challenge (D-2)) was 0.91, the “AUROC, untreated vs A1AT-treated” value (NE [4]; A1AT 3 days before LPS challenge (D-3)) was 0.50 and the “correlation between breath signal and A1AT in the lungs (Pearson's r)” value (NE [4]; p = 0.0293) was −0.6018. The “protection by day 3” value (NE [4]; single 1 mg AAT dose) was “No protection is observed by day 3”.
